This is an account of results in US12673063B2, “Methods and materials for treatment of fibrosis” (Massachusetts Eye and Ear Infirmary, priority 2020, dated 2026).

SMILES strings stand for the structures.

The test system of one data set is N-Cadherin in A549 cells. The data set can be described thus: TGF-β1-induced N-Cadherin upregulation, Western blot, A549. It counts as cell-based, human. Conditions: A549, 150 μM and 200 μM, 24 hours prior to TGF-β1 exposure. As to the method: Human type II alveolar epithelial cells (A549) were a generous gift from Dr. Lagares (Mass General Hospital). Cells were maintained in low glucose-DMEM containing 10% FBS, 2 mM L-glutamine, 100 U/ml penicillin and 100 μg/ml streptomycin at 37° C. in a humidified 5% C02 atmosphere. Confluent cultures of cells were pretreated with Ro24-7429 for 24 hours followed by stimulation with 5 ng/ml of TGF-β1.
Protein concentration was determined by Pierce Bicinchonic acid (BCA) protein assay kit (ThermoFisher; 23227) according to the manufacturer's instructions. 20 μg of total cell lysates were prepared in 4 μL 1M 1,4-dithiothreitol (DTT; Sigma Aldrich) and 10 μL Laemmli buffer (Boston Bioproducts) to a final volume of 40 μL and denatured 5 min at 90° C. Samples were separated electrophoretically for 1 h at 70 V using 4-20% pre-cast gradient gels (Mini-PROTEAN TGX, Bio-Rad) and SDS-Tris-Glycine buffer (Bio-rad). Proteins were transferred to 0.45 μm nitrocellulose membranes for 1 h at 70 V in ice cold […] Tris-Glycine buffer (Bio-rad). Membranes were blocked for 1 h with Odyssey Blocking Buffer (LI-COR Biosciences). […]
We evaluated the effect of RUNX1 inhibition on the expression of fibrosis markers induced by TGF-β1, a critical mediator of PF (30), in A549 cells at 24, 48 and 72 hours. […]

A further data set concerns A549 cells. The data set can be described thus: Lactate dehydrogenase (LDH) cell death assay, A549. It counts as cell-based. As to conditions: A549; Ro24-7429 50-200 μM, Ro5-3335 150 μM. How it is done:
Human type II alveolar epithelial cells (A549) were a generous gift from Dr. Lagares (Mass General Hospital). Cells were maintained in low glucose-DMEM containing 10% FBS, 2 mM L-glutamine, 100 U/ml penicillin and 100 μg/ml streptomycin at 37° C. in a humidified 5% C02 atmosphere.
We tested the effect of RUNX1 inhibition on the proliferation of a human alveolar basal epithelial cell line (A549), primary human-derived pulmonary alveolar epithelial cells (HPAEpi), and in human-derived primary culture lung fibroblasts (HLF).

Another data set deals with FURIN mRNA in HMEC-Ls. In words: FURIN mRNA, qPCR, TNF-α-stimulated HMEC-Ls. Format: cell-based, human. As to conditions: TNF-α 5 ng/ml.
Data set [1] deals with bleomycin-induced inflammation. In words: Bleomycin-induced lung inflammation, infiltration of neutrophils and macrophages. It counts as in vivo, C57BL/6J mice. As to conditions: 1-week and 2-week time points. As to the method: (§1) Bleomycin sulphate (Sigma-Aldrich) was dissolved in sterile 0.9% saline and administered as a single dose of 0.05 units in a total volume of 50 μl in saline solution per animal intratracheally (IT). Control animals received 0.05 mL saline alone. A preventative regimen was chosen and each animal received either Ro24-7429 drug 70 mg/kg or vehicle every other day 7 days before the induction of the model and continued until the end of the experiment for 1 week or 2 weeks. All animals received intratracheal instillations of either bleomycin on day 0 as previously described (52-55). A separate experiment was performed with similar drug-vehicle treatments and IT saline instillation for controls. The surgeon performing IT instillations was masked to the identity of the treatment groups.
Paraffin embedded sections were processed for immunofluorescence using the following antibodies: anti-RUNX1 (1:100; LS-B13948; Lifespan Biosciences, Seattle, WA), anti-human a-SMA antibody (1:200; NB500-170; Novus Biologicals, Ontario, Canada), anti-Iba1 antibody (1:100; ab5076; Abcam, Cambridge, United Kingdom), anti-Ly6g antibody (1:100; ab25377; Abcam, Cambridge, United Kingdom), and Isolectin GS-IB4 Alexa Fluoro 594 Conjugate (1:250; 121413; Invitrogen, Carlsbad, CA). […]
We evaluated the potential effect of Ro24-7429 on bleomycin-induced inflammation 1 week and 2 weeks after lung injury (FIGS. 1I-J and 2).

The subject of data set [2] is bleomycin-induced lung fibrosis. The data set can be described thus: Bleomycin-induced lung fibrosis model, H&E, Masson's trichrome, Ashcroft score. Format: in vivo, C57BL/6J mice. How it is done: Animal procedures were approved by the Institutional Animal Care and Use Committee (IACUC) of Massachusetts Eye and Ear, and performed in accordance with the Association for Research in Vision and Ophthalmology Statement for the Use of Animals in Ophthalmic and Vision Research. C57BL/6J male and female mice of 6-8 weeks-old were purchased from Jackson Laboratories. For all procedures, mice were anesthetized by intraperitoneal injection of Ketamine/xylazine mixture (100/50 mg/Kg).
as §1
Lung samples were fixed in 10% neutral buffered formalin (Sigma, HT501128-4L), for 24 hours for histological analysis. Fixed lungs were paraffin embedded and sectioned (5 μm-thick) and stained with hematoxylin and eosin (H&E) to examine gross morphology and Masson's trichrome stain to visualize collagen deposition and examined by microscopy. Lung fibrosis was measured using quantitative histology using the Ashcroft method of analysis. All measurements were performed by two independent graders in a blinded fashion. Images were acquired with the Nikon Eclipse E800 microscope with an Olympus DP70 Camera. Adjacent 2× images of the lung were stitched together using Adobe Photoshop CS6.
Bleomycin triggers a strong inflammatory response in the lung at day 7 characterized by infiltration with neutrophils and macrophages, vascular leakage, and up-regulation of cytokines, chemokines and other inflammatory mediators. By day 14, bleomycin treated mice are expected to develop significant lung fibrosis including disruption of the normal lung architecture, thickening of the alveolar septa, and excessive extracellular matrix and collagen deposition around the alveolar structures. We examined the effects of escalating doses of Ro24-7429 (17.5, 35 and 70 mg/kg per day) on bleomycin-induced lung fibrosis by H&E and Masson's trichrome staining in mice at day 14 (FIG. 1A-B, FIG. 5A-B). These doses were estimated to be equivalent to those used in the Ro24-7429 human trial, 75, 150 or 300 mg per day, respectively (28).

`CNC1=Nc2ccc(Cl)cc2C(c2ccc[nH]2)=NC1` [Ro24-7429, 3H-1,4-Benzodiazepin-2-amine, 7-chloro-N-methyl-5-(1H-pyrrol-2-yl)-]: in the data set with N-Cadherin in A549 cells, the “TGF-β1-induced N-Cadherin upregulation” value is given as “effectively prevented”. Also, the “cell death by LDH analysis” value in the data set on A549 cells was “Very low levels of cell death”. Moreover, in the data set with FURIN mRNA in HMEC-Ls, the “reduction of FURIN mRNA expression” value is on record as 70%. Moreover, the “infiltration of inflammatory cells, neutrophils and macrophages” value in data set [1] is “reduced infiltration”. Besides, in data set [2] (17.5 mg/kg, day 14), the “effect on lung phenotype / progression of fibrosis” value is “slight effect”. In data set [2] (35 mg/kg, day 14), the “effect on the progression of fibrosis” value is “moderate but variable effect”. Moreover, the Ashcroft fibrosis score result in data set [2] (70 mg/kg, day 14) is on record as “significant reduction”. Also, in data set [2] (70 mg/kg, day 14, H&E and Masson's trichrome), the “lung structures after bleomycin instillation” value is “robust preservation of lung structures”.
